Test results as given in BindingDB's records for doi:10.1021/jm060653b (Pfizer, 2007).

Biological target: T1, cAMP and cAMP-inhibited cGMP 3',5'-cyclic phosphodiesterase 10A (Rattus norvegicus, UniProt Q9QYJ6)
T1 sequence (Q9QYJ6 whole entry): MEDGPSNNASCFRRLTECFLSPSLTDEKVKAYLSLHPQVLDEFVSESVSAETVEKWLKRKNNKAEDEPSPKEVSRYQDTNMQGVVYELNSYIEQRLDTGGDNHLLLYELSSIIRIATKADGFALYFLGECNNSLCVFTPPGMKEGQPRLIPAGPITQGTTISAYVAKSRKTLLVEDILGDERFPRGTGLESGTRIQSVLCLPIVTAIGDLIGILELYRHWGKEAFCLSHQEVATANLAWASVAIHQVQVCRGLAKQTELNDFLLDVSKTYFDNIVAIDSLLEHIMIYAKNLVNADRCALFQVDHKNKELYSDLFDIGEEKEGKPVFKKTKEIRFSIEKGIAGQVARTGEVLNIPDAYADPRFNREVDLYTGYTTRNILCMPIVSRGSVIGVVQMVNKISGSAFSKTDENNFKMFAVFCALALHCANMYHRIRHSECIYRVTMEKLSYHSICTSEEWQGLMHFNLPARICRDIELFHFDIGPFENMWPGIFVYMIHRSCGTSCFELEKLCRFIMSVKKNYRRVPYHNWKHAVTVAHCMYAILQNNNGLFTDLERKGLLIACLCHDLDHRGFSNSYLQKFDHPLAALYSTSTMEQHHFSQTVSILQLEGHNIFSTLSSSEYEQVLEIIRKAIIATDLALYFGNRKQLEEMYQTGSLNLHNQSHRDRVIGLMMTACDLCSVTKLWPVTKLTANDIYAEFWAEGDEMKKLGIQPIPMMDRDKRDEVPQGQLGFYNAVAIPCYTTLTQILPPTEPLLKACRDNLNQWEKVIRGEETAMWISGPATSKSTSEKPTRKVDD
Experiment: PDE Competitive Enzyme Inhibition Assay
Conditions: pH 7.5; 22 °C
From the text: PDE activity was monitored by measuring the hydrolysis of [3H]-cAMP to [3H]-AMP using a scintillation proximity assay (SPA). [3H]-AMP was captured by the SPA beads, and quantified on a TopCount plate reader.

Ki: 100 nM
Compound: COc1cc2ncnc(N3CC[C@@H](Oc4ccc(C(C)(C)C)cc4)C3)c2cc1OC [(R)-4-[3-(4-tert-Butyl-phenoxy)-pyrrolidin-1-yl]-6,7-dimethoxy-quinazoline]
